The results in this text go back to patent publication US4629567A, “Alpha-1-antiprotease purification” (SmithKline-RIT, priority 1986, dated 1986).

The test system of experiment [1] is trypsin. The experiment can be described thus: standard trypsin inhibition assay (microtest with chromogenic substrate S2444). Type of experiment: biochemical. The conditions noted are these: fixed amount of trypsin, 20 min at 37° C. On the procedure:
The activity of the four AAT proteins purified by the method of the invention was compared to that of a standard AAT preparation derived from serum in a standard trypsin inhibition assay. The assay measures the inhibitory capacity of α1 -antitrypsin toward trypsin. It consists of a microtest using the chromogenic substrate S2444 (L-pyroglutamylglycyl-L-arginine, p-nitroanilide hydrochloride, Kabi Diagnostica, Stockholm, Sweden). The polystyrene microtest plates were incubated for 1 hr with 1% bovine serum albumin and washed extensively with distilled water. α1 -antitrypsin at various concentrations was incubated with a fixed amount of trypsin for 20 min at 37° C. in a 200- 1 final reaction volume of 0.1 M Tris-HCl pH 8.2/0.15 M NaCl/0.01 M EDTA/0.5% polyethylene glycol, Mr 6000). Samples were cooled slowly at room temperature and then exposed to the chromogenic substrate (20 μl of aqueous solution of 0.003 M S2444). After 5 min at room temperature, the reaction was stopped with 50 μl of 50% acetic acid.
Absorbance was read at 405 nm in a micro-ELISA automatic reader (Dynatech AM120). Calibration curves were determined for both trypsin and α1 -antitrypsin. Samples to be assayed were diluted serially in reaction buffer.

The subject of experiment [2] is trypsin. The experiment is described as above. Type of experiment: biochemical. As to conditions: fixed amount of trypsin, 20 min at 37° C. This is another data set of the same source.

Turning to “3: mature AAT (having N-met in place of the N-glu) expressed in yeast [Sample 3]”, the “% inhibition of trypsin activity” value in the experiment with trypsin [1] (AAT concentration 0.25 ug/ml) is 7%; with trypsin [1] (AAT concentration 0.50 ug/ml), 17%; with trypsin [1] (AAT concentration 1.50 ug/ml), 47%. For the same substance, the “Optical density (A410)” value in the experiment on trypsin [2] (AAT concentration 0.25 ug/ml) is reported as 0.95; with trypsin [2] (AAT concentration 0.50 ug/ml) it was 0.84; with trypsin [2] (AAT concentration 1.50 ug/ml), 0.54.
In the case of “4: AAT from human plasma, purified by the method of the invention [Sample 4]”, the “% inhibition of trypsin activity” value in the experiment with trypsin [1] (AAT concentration 0.25 ug/ml) came to 17%; with trypsin [1] (AAT concentration 1 ug/ml), 46%; in the experiment on trypsin [1] (AAT concentration 2 ug/ml) it was 93%. Also, the “Optical density (A410)” value was determined as 0.74 with trypsin [2] (AAT concentration 0.25 ug/ml), 0.48 with trypsin [2] (AAT concentration 1 ug/ml) and 0.06 in the experiment on trypsin [2] (AAT concentration 2 ug/ml).
Regarding “standard: standard AAT preparation derived from serum”, the “% inhibition of trypsin activity” value in the experiment on trypsin [1] (AAT concentration 0.50 ug/ml) is 11%; with trypsin [1] (AAT concentration 1 ug/ml), 33%; in the experiment on trypsin [1] (AAT concentration 2 ug/ml), 66%; in the experiment on trypsin [1] (AAT concentration 2.50 ug/ml), 74%; with trypsin [1] (AAT concentration 3.50 ug/ml), 82%; in the experiment on trypsin [1] (AAT concentration 4.50 ug/ml), 90%. In addition, the “Optical density (A410)” value with trypsin [2] (AAT concentration 0.50 ug/ml) is given as “.78”; with trypsin [2] (AAT concentration 1 ug/ml), “.63”; in the experiment with trypsin [2] (AAT concentration 2 ug/ml), “.32”; in the experiment on trypsin [2] (AAT concentration 2.50 ug/ml) it was “.24”; in the experiment on trypsin [2] (AAT concentration 3.50 ug/ml) it was “.17”; in the experiment with trypsin [2] (AAT concentration 4.50 ug/ml) it was “.1”.
